Tests used:
Assay in all cases: KINOMEscan
Type in all cases: binding
[1] = target: T1, ACVR2B (Homo sapiens, UniProt Q13705)
T1 construct: purchased KINOMEscan (Ambit)
Description: (§1) The activity of the compounds was confirmed using Compound S-(I-1) in the KINOMEscan screening platform.

[2] = target: T2, ARK5 (Homo sapiens, UniProt O60285)
T2 construct: purchased KINOMEscan (Ambit)
Description: as §1

[3] = target: T3, BMPR2 (Homo sapiens, UniProt Q13873)
T3 construct: purchased KINOMEscan (Ambit)
Description: as §1

[4] = target: T4, BTK (Homo sapiens, UniProt Q06187)
T4 construct: purchased KINOMEscan (Ambit)
Description: as §1

[5] = target: T5, CDC2L5 (Homo sapiens, UniProt Q14004)
T5 construct: purchased KINOMEscan (Ambit)
Description: as §1

[6] = target: T6, CDK11 (Homo sapiens, UniProt Q9BWU1)
T6 construct: purchased KINOMEscan (Ambit)
Description: as §1

[7] = target: T7, CDK2 (Homo sapiens, UniProt P24941)
T7 construct: purchased KINOMEscan (Ambit)
Description: as §1

[8] = target: T8, CDK3 (Homo sapiens, UniProt Q00526)
T8 construct: purchased KINOMEscan (Ambit)
Description: as §1

[9] = target: T9, CDK8 (Homo sapiens, UniProt P49336)
T9 construct: purchased KINOMEscan (Ambit)
Description: as §1

[10] = target: T10, CHEK1 (Homo sapiens, UniProt O14757)
T10 construct: purchased KINOMEscan (Ambit) screening platform
Description: as §1

[11] = target: T11, CIT (Homo sapiens, UniProt O14578)
T11 construct: purchased KINOMEscan (Ambit) screening platform
Description: as §1

[12] = target: T12, CSK (Homo sapiens, UniProt P41240)
T12 construct: purchased KINOMEscan (Ambit) screening platform
Description: as §1

[13] = target: T13, CSNK1G1 (Homo sapiens, UniProt Q9HCP0)
T13 construct: purchased KINOMEscan (Ambit) screening platform
Description: as §1

[14] = target: T14, CSNK1G2 (Homo sapiens, UniProt P78368)
T14 construct: purchased KINOMEscan (Ambit) screening platform
Description: as §1

[15] = target: T15, CSNK1G3 (Homo sapiens, UniProt Q9Y6M4)
T15 construct: purchased KINOMEscan (Ambit) screening platform
Description: as §1

[16] = target: T16, DCAMKL1 (Homo sapiens, UniProt O15075)
T16 construct: purchased KINOMEscan (Ambit)
Description: as §1

[17] = target: T17, DLK (Homo sapiens, UniProt Q12852)
T17 construct: purchased KINOMEscan (Ambit)
Description: as §1

[18] = target: T18, EGFR (Homo sapiens, UniProt P00533)
T18 construct: purchased KINOMEscan (Ambit)
Description: as §1

[19] = target: T19, EGFR(E746-A750del) (Homo sapiens, UniProt P00533, DEL746-750)
T19 construct: purchased KINOMEscan (Ambit)
Description: as §1

[20] = target: T20, EGFR(G719C) (Homo sapiens, UniProt P00533, G719C)
T20 construct: purchased KINOMEscan (Ambit)
Description: as §1

[21] = target: T21, EGFR(G719S) (Homo sapiens, UniProt P00533, G719S)
T21 construct: purchased KINOMEscan (Ambit)
Description: as §1

[22] = target: T22, EGFR(L747-E749del, A750P) (Homo sapiens, UniProt P00533, A750P/DEL747-749)
T22 construct: purchased KINOMEscan (Ambit)
Description: as §1

[23] = target: T23, EGFR(L747-S752del, P753S) (Homo sapiens, UniProt P00533, DEL747-752/P753S)
T23 construct: purchased KINOMEscan (Ambit)
Description: as §1

[24] = tested on: EGFR(L747-T751del, Sins)
Description: as §1

[25] = target: T24, EGFR(L858R) (Homo sapiens, UniProt P00533, L858R)
T24 construct: purchased KINOMEscan (Ambit)
Description: as §1

[26] = target: T25, EGFR(L858R, T790M) (Homo sapiens, UniProt P00533, L858R/T790M)
T25 construct: purchased KINOMEscan (Ambit)
Description: as §1

[27] = target: T26, EGFR(L861Q) (Homo sapiens, UniProt P00533, L861Q)
T26 construct: purchased KINOMEscan (Ambit)
Description: as §1

[28] = target: T27, EGFR(S752-I759del) (Homo sapiens, UniProt P00533, DEL752-759)
T27 construct: purchased KINOMEscan (Ambit)
Description: as §1

[29] = target: T28, EGFR(T790M) (Homo sapiens, UniProt P00533, T790M)
T28 construct: purchased KINOMEscan (Ambit)
Description: as §1

[30] = target: T29, EPHA5 (Homo sapiens, UniProt P54756)
T29 construct: purchased KINOMEscan (Ambit)
Description: as §1

[31] = target: T30, EPHB2 (Homo sapiens, UniProt P29323)
T30 construct: purchased KINOMEscan (Ambit)
Description: as §1

[32] = tested on: FLT3(ITD)
Description: as §1

[33] = target: T31, IRAK4 (Homo sapiens, UniProt Q9NWZ3)
T31 construct: purchased KINOMEscan (Ambit) screening platform
Description: as §1

[34] = target: T32, ITK (Homo sapiens, UniProt Q08881)
T32 construct: purchased KINOMEscan (Ambit) screening platform
Description: as §1

[35] = target: T33, JAK1(JH1domain-catalytic) (Homo sapiens, UniProt P23458)
T33 construct: JAK1(JH1domain); purchased KINOMEscan (Ambit) screening platform
Description: as §1

[36] = target: T34, JAK1(JH2domain-pseudokinase) (Homo sapiens, UniProt P23458)
T34 construct: JAK1(JH2domain-; purchased KINOMEscan (Ambit) screening platform
Description: as §1

[37] = target: T35, JAK2(JH1domain-catalytic) (Homo sapiens, UniProt O60674)
T35 construct: JAK2(JH1domain-; purchased KINOMEscan (Ambit) screening platform
Description: as §1

[38] = target: T36, JNK1 (Homo sapiens, UniProt P45983)
T36 construct: purchased KINOMEscan (Ambit) screening platform
Description: as §1

[39] = target: T37, JNK2 (Homo sapiens, UniProt P45984)
T37 construct: purchased KINOMEscan (Ambit) screening platform
Description: as §1

[40] = target: T38, JNK3 (Homo sapiens, UniProt P53779)
T38 construct: purchased KINOMEscan (Ambit) screening platform
Description: as §1

[41] = target: T39, LATS2 (Homo sapiens, UniProt Q9NRM7)
T39 construct: purchased KINOMEscan (Ambit) screening platform
Description: as §1

[42] = target: T40, LOK (Homo sapiens, UniProt O94804)
T40 construct: purchased KINOMEscan (Ambit) screening platform
Description: as §1

[43] = target: T41, LZK (Homo sapiens, UniProt O43283)
T41 construct: purchased KINOMEscan screening platform (Ambit)
Description: as §1

[44] = target: T42, MAP4K3 (Homo sapiens, UniProt Q8IVH8)
T42 construct: purchased KINOMEscan screening platform (Ambit)
Description: as §1

[45] = target: T43, MARK4 (Homo sapiens, UniProt Q96L34)
T43 construct: purchased KINOMEscan screening platform (Ambit)
Description: as §1

[46] = target: T44, MET (Homo sapiens, UniProt P08581)
T44 construct: purchased KINOMEscan screening platform (Ambit)
Description: as §1

[47] = target: T45, MET(M1250T) (Homo sapiens, UniProt P08581, M1250T)
T45 construct: purchased KINOMEscan screening platform (Ambit)
Description: as §1

[48] = target: T46, MET(Y1235D) (Homo sapiens, UniProt P08581, Y1235D)
T46 construct: purchased KINOMEscan screening platform (Ambit)
Description: as §1

[49] = target: T47, MKK7 (Homo sapiens, UniProt O14733)
T47 construct: purchased KINOMEscan screening platform (Ambit)
Description: as §1

[50] = target: T48, MLK3 (Homo sapiens, UniProt Q16584)
T48 construct: purchased KINOMEscan screening platform (Ambit)
Description: as §1

[51] = target: T49, MST1 (Homo sapiens, UniProt Q13043)
T49 construct: purchased KINOMEscan screening platform (Ambit)
Description: as §1

[52] = target: T50, MST3 (Homo sapiens, UniProt Q9Y6E0)
T50 construct: purchased KINOMEscan screening platform (Ambit)
Description: as §1

[53] = target: T51, PFTK1 (Homo sapiens, UniProt O94921)
T51 construct: purchased KINOMEscan screening platform (Ambit)
Description: as §1

[54] = target: T52, PIP5K1C (Homo sapiens, UniProt O60331)
T52 construct: purchased KINOMEscan (Ambit) screening platform
Description: as §1

[55] = target: T53, PKMYT1 (Homo sapiens, UniProt Q99640)
T53 construct: purchased KINOMEscan (Ambit) screening platform
Description: as §1

[56] = target: T54, PLK2 (Homo sapiens, UniProt Q9NYY3)
T54 construct: purchased KINOMEscan (Ambit) screening platform
Description: as §1

[57] = target: T55, PRKR (Homo sapiens, UniProt P19525)
T55 construct: KINOMEscan (Ambit)
Description: as §1

[58] = target: T56, QSK (Homo sapiens, UniProt Q9Y2K2)
T56 construct: KINOMEscan (Ambit)
Description: as §1

[59] = target: T57, RSK4(Kin.Dom.1-N-terminal) (Homo sapiens, UniProt Q9UK32)
T57 construct: Kin.Dom.1; purchased KINOMEscan (Ambit)
Description: as §1

[60] = target: T58, RSK4(Kin.Dom.2-C-terminal) (Homo sapiens, UniProt Q9UK32)
T58 construct: Kin.Dom.2; purchased KINOMEscan (Ambit)
Description: as §1

[61] = target: T59, SIK (Homo sapiens, UniProt P57059)
T59 construct: purchased KINOMEscan (Ambit)
Description: as §1

[62] = target: T60, SNARK (Homo sapiens, UniProt Q9H093)
T60 construct: purchased KINOMEscan (Ambit)
Description: as §1

[63] = target: T61, SYK (Homo sapiens, UniProt P43405)
T61 construct: purchased KINOMEscan (Ambit)
Description: as §1

[64] = target: T62, TYK2(JH1domain-catalytic) (Homo sapiens, UniProt P29597)
T62 construct: TYK2(JH1domain); purchased KINOMEscan (Ambit) screening platform
Description: as §1

[65] = target: T63, TYK2(JH2domain-pseudokinase) (Homo sapiens, UniProt P29597)
T63 construct: TYK2(JH2domain); purchased KINOMEscan (Ambit) screening platform
Description: as §1

[66] = target: T64, ULK1 (Homo sapiens, UniProt O75385)
T64 construct: purchased KINOMEscan (Ambit) screening platform
Description: as §1

[67] = target: T65, ULK3 (Homo sapiens, UniProt Q6PHR2)
T65 construct: purchased KINOMEscan (Ambit) screening platform
Description: as §1

[68] = target: T66, WNK1 (Homo sapiens, UniProt Q9H4A3)
T66 construct: purchased KINOMEscan (Ambit) screening platform
Description: as §1

[69] = target: T67, p38-alpha (Homo sapiens, UniProt Q16539)
T67 construct: purchased KINOMEscan (Ambit)
Description: as §1

T25 sequence (P00533 25-1210 T790M/L858R): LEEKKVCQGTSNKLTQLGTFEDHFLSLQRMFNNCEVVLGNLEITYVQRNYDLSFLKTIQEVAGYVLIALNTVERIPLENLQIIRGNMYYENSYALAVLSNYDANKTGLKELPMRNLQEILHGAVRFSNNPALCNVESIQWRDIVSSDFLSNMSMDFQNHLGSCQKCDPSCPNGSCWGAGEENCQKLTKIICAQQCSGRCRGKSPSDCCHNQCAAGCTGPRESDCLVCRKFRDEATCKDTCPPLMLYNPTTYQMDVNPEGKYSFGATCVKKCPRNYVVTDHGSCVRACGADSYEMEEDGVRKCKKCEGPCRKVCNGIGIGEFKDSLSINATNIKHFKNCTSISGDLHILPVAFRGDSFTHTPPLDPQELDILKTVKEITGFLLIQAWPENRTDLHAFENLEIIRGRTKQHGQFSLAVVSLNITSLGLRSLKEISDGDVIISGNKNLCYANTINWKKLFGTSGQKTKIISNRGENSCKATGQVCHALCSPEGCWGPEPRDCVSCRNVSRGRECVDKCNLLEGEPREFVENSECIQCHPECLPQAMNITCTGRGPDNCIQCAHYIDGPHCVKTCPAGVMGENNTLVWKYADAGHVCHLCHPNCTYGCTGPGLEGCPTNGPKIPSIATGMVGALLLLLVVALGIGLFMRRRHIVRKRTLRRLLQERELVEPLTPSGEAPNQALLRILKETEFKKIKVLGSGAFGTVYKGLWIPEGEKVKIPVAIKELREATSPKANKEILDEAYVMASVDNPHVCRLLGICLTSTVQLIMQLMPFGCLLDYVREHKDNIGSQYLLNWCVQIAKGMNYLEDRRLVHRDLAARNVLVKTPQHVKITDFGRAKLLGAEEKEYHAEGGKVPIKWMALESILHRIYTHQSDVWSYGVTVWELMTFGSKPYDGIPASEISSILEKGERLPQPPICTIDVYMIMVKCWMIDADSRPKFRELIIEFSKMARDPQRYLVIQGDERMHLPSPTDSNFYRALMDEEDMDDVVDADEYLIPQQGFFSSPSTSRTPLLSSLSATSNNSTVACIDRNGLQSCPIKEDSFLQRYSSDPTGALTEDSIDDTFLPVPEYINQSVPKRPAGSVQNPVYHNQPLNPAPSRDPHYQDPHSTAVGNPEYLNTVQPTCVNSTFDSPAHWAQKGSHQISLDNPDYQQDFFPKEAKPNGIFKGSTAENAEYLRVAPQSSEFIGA
T29 sequence (P54756 25-1037): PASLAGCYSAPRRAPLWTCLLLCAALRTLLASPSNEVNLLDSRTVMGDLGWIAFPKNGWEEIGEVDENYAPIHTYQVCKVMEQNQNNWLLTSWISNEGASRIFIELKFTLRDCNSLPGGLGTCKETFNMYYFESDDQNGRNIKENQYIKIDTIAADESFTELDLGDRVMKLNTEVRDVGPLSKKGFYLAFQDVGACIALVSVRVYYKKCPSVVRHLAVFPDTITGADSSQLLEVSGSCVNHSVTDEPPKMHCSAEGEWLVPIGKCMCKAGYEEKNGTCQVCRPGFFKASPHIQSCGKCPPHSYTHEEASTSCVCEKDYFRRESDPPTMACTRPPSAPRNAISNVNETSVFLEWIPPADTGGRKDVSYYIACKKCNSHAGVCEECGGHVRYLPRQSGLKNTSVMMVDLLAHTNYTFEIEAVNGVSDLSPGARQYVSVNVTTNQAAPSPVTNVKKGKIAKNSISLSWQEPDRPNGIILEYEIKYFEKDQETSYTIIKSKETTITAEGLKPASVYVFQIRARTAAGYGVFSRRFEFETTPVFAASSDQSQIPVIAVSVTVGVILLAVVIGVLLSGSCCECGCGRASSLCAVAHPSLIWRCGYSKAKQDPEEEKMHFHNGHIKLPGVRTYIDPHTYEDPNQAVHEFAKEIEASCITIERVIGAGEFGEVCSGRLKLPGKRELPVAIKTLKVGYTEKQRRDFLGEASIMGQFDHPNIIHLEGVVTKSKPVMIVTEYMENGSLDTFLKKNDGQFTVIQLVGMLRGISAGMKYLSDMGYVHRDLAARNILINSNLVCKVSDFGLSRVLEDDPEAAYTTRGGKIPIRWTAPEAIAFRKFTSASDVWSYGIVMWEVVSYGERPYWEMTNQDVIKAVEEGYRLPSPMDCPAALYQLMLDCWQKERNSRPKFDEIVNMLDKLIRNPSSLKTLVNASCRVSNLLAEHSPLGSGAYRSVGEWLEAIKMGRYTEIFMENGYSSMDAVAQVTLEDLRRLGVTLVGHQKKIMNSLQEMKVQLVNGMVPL
T50 sequence (Q9Y6E0 whole entry): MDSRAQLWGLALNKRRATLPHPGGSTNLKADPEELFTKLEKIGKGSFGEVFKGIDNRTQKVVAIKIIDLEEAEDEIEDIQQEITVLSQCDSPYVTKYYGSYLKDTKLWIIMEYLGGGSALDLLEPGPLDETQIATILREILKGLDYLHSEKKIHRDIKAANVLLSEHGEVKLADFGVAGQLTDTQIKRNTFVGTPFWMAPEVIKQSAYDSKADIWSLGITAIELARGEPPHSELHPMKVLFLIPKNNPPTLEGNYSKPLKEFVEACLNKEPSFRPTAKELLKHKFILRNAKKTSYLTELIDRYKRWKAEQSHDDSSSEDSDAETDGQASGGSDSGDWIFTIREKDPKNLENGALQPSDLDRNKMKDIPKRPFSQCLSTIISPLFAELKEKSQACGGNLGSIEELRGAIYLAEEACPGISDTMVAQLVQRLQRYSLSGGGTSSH
T60 sequence (Q9H093 whole entry): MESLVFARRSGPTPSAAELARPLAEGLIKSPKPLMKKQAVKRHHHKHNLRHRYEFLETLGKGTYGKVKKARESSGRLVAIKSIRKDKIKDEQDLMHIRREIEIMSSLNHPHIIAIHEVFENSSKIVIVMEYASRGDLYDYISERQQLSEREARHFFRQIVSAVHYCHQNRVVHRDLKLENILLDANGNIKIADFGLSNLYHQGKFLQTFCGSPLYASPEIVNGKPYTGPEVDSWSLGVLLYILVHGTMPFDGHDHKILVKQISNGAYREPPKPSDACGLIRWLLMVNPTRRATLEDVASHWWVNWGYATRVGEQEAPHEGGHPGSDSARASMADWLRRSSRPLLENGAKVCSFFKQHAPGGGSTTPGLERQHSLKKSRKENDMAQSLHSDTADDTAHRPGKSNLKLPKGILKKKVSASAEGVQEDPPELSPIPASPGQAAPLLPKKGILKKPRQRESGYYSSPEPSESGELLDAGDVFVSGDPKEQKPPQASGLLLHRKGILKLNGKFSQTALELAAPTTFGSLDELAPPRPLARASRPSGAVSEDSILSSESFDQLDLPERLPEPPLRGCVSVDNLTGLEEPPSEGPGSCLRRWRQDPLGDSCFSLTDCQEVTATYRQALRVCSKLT
T48 sequence (Q16584 whole entry): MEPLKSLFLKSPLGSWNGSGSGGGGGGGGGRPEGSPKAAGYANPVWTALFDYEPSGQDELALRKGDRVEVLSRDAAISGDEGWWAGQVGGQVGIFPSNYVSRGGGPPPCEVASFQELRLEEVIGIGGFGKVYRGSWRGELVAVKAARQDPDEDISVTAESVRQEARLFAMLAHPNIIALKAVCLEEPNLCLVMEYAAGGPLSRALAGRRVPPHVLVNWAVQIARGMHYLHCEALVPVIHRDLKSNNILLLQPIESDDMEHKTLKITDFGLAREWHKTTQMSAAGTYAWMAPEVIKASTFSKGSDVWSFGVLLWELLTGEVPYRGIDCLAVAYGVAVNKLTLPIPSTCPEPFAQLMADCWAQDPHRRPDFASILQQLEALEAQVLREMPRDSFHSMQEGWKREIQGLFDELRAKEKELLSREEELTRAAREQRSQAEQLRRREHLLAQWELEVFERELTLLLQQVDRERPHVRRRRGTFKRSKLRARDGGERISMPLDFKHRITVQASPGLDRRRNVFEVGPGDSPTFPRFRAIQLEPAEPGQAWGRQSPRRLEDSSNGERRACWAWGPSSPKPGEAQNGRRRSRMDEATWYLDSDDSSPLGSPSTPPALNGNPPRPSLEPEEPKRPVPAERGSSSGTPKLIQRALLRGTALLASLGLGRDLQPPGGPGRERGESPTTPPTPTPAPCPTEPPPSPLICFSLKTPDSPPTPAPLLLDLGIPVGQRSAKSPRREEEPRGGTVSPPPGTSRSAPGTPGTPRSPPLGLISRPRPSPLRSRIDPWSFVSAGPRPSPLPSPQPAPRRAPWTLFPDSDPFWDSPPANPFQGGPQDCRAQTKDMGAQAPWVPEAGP
T54 sequence (Q9NYY3 whole entry): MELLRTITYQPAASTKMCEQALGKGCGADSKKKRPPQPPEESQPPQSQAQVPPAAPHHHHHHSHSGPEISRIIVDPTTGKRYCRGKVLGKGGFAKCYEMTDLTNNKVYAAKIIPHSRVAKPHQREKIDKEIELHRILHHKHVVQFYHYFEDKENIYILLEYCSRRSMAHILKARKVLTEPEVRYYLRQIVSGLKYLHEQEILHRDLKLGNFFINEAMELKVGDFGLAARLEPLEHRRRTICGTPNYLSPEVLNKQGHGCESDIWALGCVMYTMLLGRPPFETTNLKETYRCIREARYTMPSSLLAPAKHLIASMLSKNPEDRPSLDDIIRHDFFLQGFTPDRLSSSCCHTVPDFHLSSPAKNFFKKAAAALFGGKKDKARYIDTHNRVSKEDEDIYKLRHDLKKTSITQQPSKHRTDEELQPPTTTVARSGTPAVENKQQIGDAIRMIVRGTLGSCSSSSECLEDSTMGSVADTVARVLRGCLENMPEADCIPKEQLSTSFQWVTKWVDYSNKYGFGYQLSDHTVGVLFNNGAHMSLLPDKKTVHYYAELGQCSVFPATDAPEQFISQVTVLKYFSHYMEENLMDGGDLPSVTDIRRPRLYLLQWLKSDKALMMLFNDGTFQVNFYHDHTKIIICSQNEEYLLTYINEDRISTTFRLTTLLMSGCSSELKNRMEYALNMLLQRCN
T34 sequence (P23458 583-855 limits assumed): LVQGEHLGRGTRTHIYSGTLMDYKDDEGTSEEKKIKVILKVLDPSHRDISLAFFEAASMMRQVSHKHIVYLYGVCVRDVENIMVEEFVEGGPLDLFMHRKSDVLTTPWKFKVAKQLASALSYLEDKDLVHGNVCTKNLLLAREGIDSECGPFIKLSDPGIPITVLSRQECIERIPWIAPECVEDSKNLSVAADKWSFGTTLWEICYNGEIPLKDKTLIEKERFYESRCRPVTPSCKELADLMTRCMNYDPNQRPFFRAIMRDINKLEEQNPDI

SMILES: C=CC(=O)N1CCC(Nc2nccc(Oc3cc(C(=O)Nc4ccc(CN5CCN(CC)CC5)c(C(F)(F)F)c4)ccc3C)n2)C1 (stereo not drawn) [S-(I-1)]
- Score [1]: 93
- Score [2]: 83
- Score [3]: 100
- Score [4]: 98
- Score [5]: 65
- Score [6]: 0
- Score [7]: 77
- Score [8]: 56
- Score [9]: 2.8
- Score [10]: 100
- Score [11]: 61
- Score [12]: 58
- Score [13]: 91
- Score [14]: 97
- Score [15]: 92
- Score [16]: 99
- Score [17]: 90
- Score [18]: 68
- Score [19]: 66
- Score [20]: 59
- Score [21]: 81
- Score [22]: 52
- Score [23]: 38
- Score [24]: 43
- Score [25]: 84
- Score [26]: 94
- Score [27]: 66
- Score [28]: 90
- Score [29]: 90
- Score [30]: 87
- Score [31]: 91
- Score [32]: 24
- Score [33]: 81
- Score [34]: 98
- Score [35]: 62
- Score [36]: 100
- Score [37]: 84
- Score [38]: 28
- Score [39]: 0.35
- Score [40]: 52
- Score [41]: 100
- Score [42]: 0.35
- Score [43]: 100
- Score [44]: 93
- Score [45]: 100
- Score [46]: 100
- Score [47]: 99
- Score [48]: 96
- Score [49]: 0.9
- Score [50]: 97
- Score [51]: 100
- Score [52]: 88
- Score [53]: 77
- Score [54]: 52
- Score [55]: 89
- Score [56]: 89
- Score [57]: 85
- Score [58]: 87
- Score [59]: 90
- Score [60]: 91
- Score [61]: 87
- Score [62]: 100
- Score [63]: 24
- Score [64]: 91
- Score [65]: 92
- Score [66]: 94
- Score [67]: 78
- Score [68]: 86
- Score [69]: 0
